This is an account of results in patent publication US10946094B2, “Adenoassociated viral mediated persistant anti-VEGF therapy for ovarian cancer” (Cornell University, priority 2015, dated 2021).

The test system of experiment [1] is A2780 ovarian cancer cells. In words: Survival of A2780 tumor-bearing mice pretreated with chemotherapeutic, followed by AAV vector. The experiment is classed as in vivo, Balb/c nude mice. Particulars: for Efficacy as single agents at the doses and schedules used: survival of A2780 tumor-bearing mice. Here is the method:
Xenografts of human ovarian cancer cells were established by administering 5 million A2780 ovarian cancer cells intraperitoneally in 6 to 8 week old female Balb/c nude mice. Survival was analyzed in the mice which were either left untreated, treated with the chemotherapeutic topotecan in combination with an AAV vector, or treated with the chemotherapeutic paclitaxel in combination with an AAV vector. To establish the topotecan-AAVrh. 10BevMab combination treatment model, 2 weeks after injection of the A2780 ovarian cancer cells, the mice were treated with topotecan at 0.625 mg/kg body weight/day, 5 times/week for 3 weeks (see, Delord et al., Ann. Oncol., 16: 1889-1897 (2005)). […] To establish the paclitaxel-AAVrh.10BevMab combination treatment model, 1 week after injection of the A2780 ovarian cancer cells, the mice were treated with paclitaxel at 20 mg/kg body weight, once/week for 2 weeks (see, Vassileva et al., Mol Cancer Ther., 7: 630-637 (2008)).

Experiment [2] has as its system recurrent ovarian cancer. The conditions noted are these: single agent, patients with recurrent ovarian cancer; cited from earlier work.

Turning to `CC[C@@]1(O)C(=O)OCc2c1cc1n(c2=O)Cc2cc3c(CN(C)C)c(O)ccc3nc2-1` [Topotecan, topotecan], the “Efficacy as single agents at the doses and schedules used” value in experiment [1] was “efficacious”. The Median survival in experiment [1] (topotecan model: 0.625 mg/kg/day, 5 times/week for 3 weeks from week 2, vector at week 5) turned out to be 50 days.
On to `CC(=O)O[C@H]1C(=O)[C@@]2(C)[C@H]([C@H](OC(=O)c3ccccc3)[C@]3(O)C[C@H](OC(=O)[C@H](O)[C@@H](NC(=O)c4ccccc4)c4ccccc4)C(C)=C1C3(C)C)[C@]1(OC(C)=O)CO[C@@H]1C[C@@H]2O` [paclitaxel], for which the Median survival in experiment [1] (paclitaxel model: 20 mg/kg once/week for 2 weeks from week 1, vector at week 3) is on record as 31 days. In addition, the “Efficacy as single agents at the doses and schedules used” value in experiment [1] is recorded as “efficacious”.
In the case of Bevacizumab, the Responsive rate in experiment [2] is 21%.
